Series [1] relates to salivation induced by pilocarpine. Description: Inhibition of salivation induced by pilocarpine (anticholinergic activity), Table 9. Format: in vivo. To be noted: oral. The source says: (§1) The psychotropic profile of the present invention products has been characterized with the animals in numerous tests some of whose results are shown hereinafter. The products of the invention were always administered orally in 6% gum base.
Certain products manifest an anticholinergic activity evidenced in the inhibition test of salivation induced by pilocarpine (Table 9).
% of inhibition of salivation induced by
pilocarpine as a function of the dose
(§2) administered expressed in mg/kg

Series [2] relates to number of displacements of the animal. Description: Four plates test (anxiolytic activity), Table 5. Particulars: oral, mouse. Format: in vivo.
Excerpt: as §1
A certain number of products manifest an anxiolytic activity evidenced in the test with the four plates with the mouse (Table 5).
% of increase in the number of displacements of the
animal as a function of the dose expressed in mg/kg

Series [3] relates to trembling induced by oxotremorine. Description: Antagonism of trembling induced by oxotremorine, Table 7. Format: in vivo. To be noted: read-out: % of inhibition of trembling induced by oxotremorine.
Excerpt: as §1
(§3) Certain tests made it possible to show antidepressive activities. These are tests of antagonism to the effects of reserpine, oxotremorine (according to Everett G. M. et al, Science, 1956, 124, 79 and Levy J. et al, Therapie 1965, 20, 265) and to despair (according to Porsolt P. D. et al, Eur. J. Pharmacol., 1978, 47, 379-91).
% of inhibition of trembling induced by
oxotremorine as a function of the dose
as §2

For series [4], the system named is ptosis induced by reserpine. Kind of series: Antagonism of ptosis induced by reserpine, Table 6. The series is classed as in vivo. Particulars: read-out: % of inhibition of ptosis induced by reserpine.
Excerpt: as §1, §3
% of inhibition of ptosis induced by reserpine
as a function of the dose administered orally

The nature of series [5]: Oral toxicity (mortality) in the mouse, Table 1. Format: in vivo. Particulars: mouse, in vivo, po, Swiss mice, 14 days. As for the experimental part: (§4) The mortality percentages caused by the products of the present invention administered orally to Swiss mice are shown in Table 1. The animals, free of specific pathological organism were housed in an air conditioned room from 24 to 48 hours before the start of the experiments. They were divided up into lots of 5 males and 5 females. With the animals unfed for 24 hours, the substances were administered intragastrically in a base of 6% gum arabic in a volume equal to 0.1 ml for 10 g of animal weight. The mortality was recorded at 14 days.
(§5) % of mortality as a function of the dose

In series [6] the test system is number of escapes the animal made in 5 minutes. Description: Escape test, Table 3. Format: in vivo, mouse. Particulars: 5 min, read-out: % of activity (variation of the number of escapes). The source says: The products of the invention were always administered orally in 6% gum base.
The notation NS signifies that the difference between the results noted for the product and the results noted for the excipient alone is not significant at the threshold 0.05 according to the Student t Test.

A further series has as its system despair. Kind of series: Test of despair (Porsolt), Table 8. Format: in vivo. Particulars: oral.
Excerpt: as §1, §3
Test of despair: % of antagonism as a function
of the dose administered orally and expressed

Another series relates to Swiss mice. Kind of series: Oral toxicity (mortality) in the mouse, Table 1. Format: in vivo. Particulars: 14 days, 20160 min. As for the experimental part: as §4, §5
The test system of the next series is phenylbenzoquinone (PBQ). Description: Analgesic activity using phenylbenzoquinone (PBQ) as noxious agent, Table 2. Format: in vivo, male Swiss mouse. Particulars: for inhibition in vivo at 50 mg/kg / inhibition in vivo at 100 mg/kg / inhibition in vivo at 200 mg/kg: Mus musculus; for inhibition in vivo at 100 mg/kg: read-out: % of analgesic activity, 100 mg/kg, male Swiss mouse, PBQ; for inhibition in vivo at 200 mg/kg: read-out: % of analgesic activity, 200 mg/kg, male Swiss mouse, PBQ. As for the experimental part:
The analgesic activity was determined with the male Swiss mouse using phenylbenzoquinone (PBQ) (a variation of the method of Siegmund et al, Proc. Soc. Exp. Med., […], 95, 729-31) as the noxious agent. Twenty-eightminutes after having administered the test products in a suspension in a 6% gum base, the PBQ solution was injected. The mice were then observed ca. 5 mn. for the next five minutes.
% of analgesic activity as a function of
the dose expressed in mg/kg

Series [7] concerns stereotype induced by apomorphine. Description: Antagonism of the stereotype induced by apomorphine, Table 4. Format: in vivo. To be noted: for % of activity vis-a-vis the stereotype induced by apomorphine: oral; for antagonism vis-a-vis the stereotype with apomorphine: in words.
Excerpt: as §1
% of activity vis-a-vis the stereotype
induced by apomorphine as a function of the
administered dose expressed in mg/kg

Read-outs that look alike come from different tables or passages of the source.

Usually mortality stands for the share of the test organisms that died. A high value points to a strong lethal effect. As to `C(=Nc1cc2c(cc1CCN1CCCC1)OCO2)c1cccnc1` [COR 01 173], the “% of inhibition of salivation induced by pilocarpine” value in [1] (75 mg/kg) is on record as -39%; in [1] (100 mg/kg) it was -48%; in series [1] (200 mg/kg) it was -76%. Moreover, the “% of increase in the number of displacements of the animal” value is given as “+30%” in series [2] (10 mg/kg), “+47%” in series [2] (20 mg/kg), “+60%” in series [2] (50 mg/kg) and “+82%” in [2] (75 mg/kg). Besides, the change in vivo at 25 mg/kg was -20% in series [3] (oral) and -13% in series [6] (25 mg/kg, oral, mouse, 5 minutes). Also, the change in vivo at 50 mg/kg in series [3] (50 mg/kg, oral) is -20%; in [4] (50 mg/kg, oral), -12%; in series [6] (50 mg/kg, oral, mouse, 5 minutes), -29%. Moreover, the change in vivo at 75 mg/kg in series [3] (75 mg/kg, oral) was -40%; in [4] (75 mg/kg, oral), -21%; in [6] (75 mg/kg, oral, mouse, 5 minutes), -26%. Moreover, the change in vivo at 100 mg/kg in [3] (100 mg/kg, oral) is -60%; in series [4] (100 mg/kg, oral), -23%; in [6] (100 mg/kg, oral, mouse, 5 minutes), -50%. Besides, the change in vivo at 150 mg/kg in series [3] (150 mg/kg, oral) is -70%; in [6] (150 mg/kg, oral, mouse, 5 minutes), -55%. For the same molecule, the mortality at 336 h amounted to 0% in series [5] (500 mg/kg) and 30% in series [5] (1000 mg/kg). The change in vivo at 5 mg/kg in [6] (5 mg/kg, oral, mouse, 5 minutes) was -33%. Also, in [6] (200 mg/kg, oral, mouse, 5 minutes), the change in vivo at 200 mg/kg is -90%. Besides, the “Test of despair: % of antagonism” value is on record as -18% with despair (50 mg/kg), -41% with despair (100 mg/kg) and -53% with despair (200 mg/kg).
With `C(=Nc1cc2c(cc1CCN1CCCCC1)OCO2)c1cccnc1` [COR 01 202], the “% of increase in the number of displacements of the animal” value is “+48%” in [2] (25 mg/kg) and “+96%” in series [2] (50 mg/kg). Besides, the change in vivo at 25 mg/kg in series [3] (oral) is 0%. Moreover, the change in vivo at 50 mg/kg in series [3] (50 mg/kg, oral) is -67%. In series [3] (75 mg/kg, oral), the change in vivo at 75 mg/kg is -44%. For the same molecule, the figures for the “% of mortality” value with Swiss mice (500 mg/kg) and with Swiss mice (1000 mg/kg) were 10% and 60%, respectively. Further, the mortality at 336 h in series [5] (750 mg/kg) was 30%. Moreover, the “% of analgesic activity” value is on record as 0% with phenylbenzoquinone (PBQ) (100 mg/kg, male Swiss mouse, PBQ) and 33% in the series with phenylbenzoquinone (PBQ) (200 mg/kg, male Swiss mouse, PBQ). For the same molecule, in the series with phenylbenzoquinone (PBQ) (50 mg/kg, male Swiss mouse, PBQ, read-out: % of analgesic activity), the inhibition in vivo at 50 mg/kg is 2%. The “Test of despair: % of antagonism” value in the series on despair (50 mg/kg) is reported as -49%; in the series with despair (100 mg/kg), -67%. The “% of activity vis-a-vis the stereotype induced by apomorphine” value in series [7] (25 mg/kg) was -35%; in [7] (50 mg/kg), -32%; in series [7] (75 mg/kg), -29%; in [7] (200 mg/kg), -20%. Moreover, the “antagonism vis-a-vis the stereotype with apomorphine” value (shortened to “antagonism vis-a-vis the stereotype”) in series [7] was “manifest an antagonism”.
`CN(C)CCc1cc2c(cc1N=Cc1ccc[n+]([O-])c1)OCO2` [COR 01 203]: the results for the “% of inhibition of salivation induced by pilocarpine” value in [1] (50 mg/kg) and in series [1] (200 mg/kg) were -32% and -30%, respectively. Also, the change in vivo at 50 mg/kg in series [3] (po) is -70%. Also, the values for the change in vivo at 100 mg/kg in [3] (po) and in series [4] (po) were -50% and -33%, respectively. For the same molecule, the change in vivo at 200 mg/kg in series [3] (po) is -20%; in series [4] (po), -27%. The mortality at 336 h in series [5] (1000 mg/kg) came out at 0%; in [5] (1500 mg/kg), 10%; in series [5] (2000 mg/kg), 40%. Further, the inhibition in vivo at 50 mg/kg in the series with phenylbenzoquinone (PBQ) (read-out: % of analgesic activity, 50 mg/kg, male Swiss mouse, PBQ) stood at 0%. Besides, the inhibition in vivo at 100 mg/kg in the series on phenylbenzoquinone (PBQ) was found to be 36%. For the same molecule, in the series with phenylbenzoquinone (PBQ), the inhibition in vivo at 200 mg/kg was 47%.
`CN(C)CCc1cc2c(cc1N=Cc1ccccc1)OCO2` [COR 01 209]: in [3] (po), the change in vivo at 50 mg/kg is -60%, the change in vivo at 75 mg/kg was -60%, the change in vivo at 100 mg/kg was -55% and the change in vivo at 150 mg/kg was -60%. Besides, the change in vivo at 200 mg/kg in series [3] (po) was -30%. For the same molecule, in [4] (po), the change in vivo at 200 mg/kg is -45%. The molecule further displayed a mortality at 336 h in series [5] (1000 mg/kg) of 0%. Moreover, the mortality at 336 h in [5] (1500 mg/kg) was found to be 40%. For the same molecule, in series [5] (2000 mg/kg), the mortality at 336 h was 60%. Moreover, in series [6] (Mus musculus, po), the change in vivo at 5 mg/kg was -28%, the change in vivo at 25 mg/kg is -38%, the change in vivo at 50 mg/kg was -32% and the change in vivo at 100 mg/kg is -37%. Also, in series [6] (Mus musculus, po), the change in vivo at 200 mg/kg is -20%. In addition, the inhibition in vivo at 200 mg/kg in the series on phenylbenzoquinone (PBQ) is 17%. In series [7] (50 mg/kg), the “% of activity vis-a-vis the stereotype induced by apomorphine” value is -54%. The “% of activity vis-a-vis the stereotype induced by apomorphine” value in series [7] (100 mg/kg) was -51%. The “% of activity vis-a-vis the stereotype induced by apomorphine” value in [7] (200 mg/kg) is -42%. Further, the “antagonism vis-a-vis the stereotype” value in [7] is given as “manifest an antagonism”.
For `COc1ccc(C=Nc2cc3c(cc2CCN(C)C)OCO3)cc1` [COR 01 210], in series [3] (po), the change in vivo at 50 mg/kg is -50%, the change in vivo at 75 mg/kg is -40%, the change in vivo at 100 mg/kg is -50% and the change in vivo at 150 mg/kg was -30%. The change in vivo at 200 mg/kg in series [3] (po) was -50%. Further, in [4] (po), the change in vivo at 50 mg/kg is -21% and the change in vivo at 100 mg/kg is -38%. For the same molecule, the mortality at 336 h in series [5] (750 mg/kg) is 0%. The molecule further yielded a mortality at 336 h in series [5] (1000 mg/kg) of 10%. Moreover, in series [5] (2000 mg/kg), the mortality at 336 h turned out to be 20%. Besides, in [6] (Mus musculus, po), the change in vivo at 100 mg/kg was -20%, the change in vivo at 150 mg/kg was -26% and the change in vivo at 200 mg/kg is -72%. In the series on phenylbenzoquinone (PBQ), the inhibition in vivo at 100 mg/kg stood at 27% and the inhibition in vivo at 200 mg/kg is 33%. Besides, the “% of activity vis-a-vis the stereotype induced by apomorphine” value in series [7] (75 mg/kg) was -33%. In addition, the “% of activity vis-a-vis the stereotype induced by apomorphine” value in [7] (150 mg/kg) is -33%. In series [7], the “antagonism vis-a-vis the stereotype” value is given as “manifest an antagonism”.

These data come from patent US4333930A, “Orthoarylideneaminophenethylamines and pharmaceutical compositions” (priority 1980, dated 1982).
